Test results reported in patent publication US11649255B2, “Indazoles as hematopoietic progenitor kinase 1 (HPK1) inhibitors and methods using same” (1st Biotherapeutics, Inc., priority 2020, dated 2023).

Target: recombinant human HPK1 (Homo sapiens (Human), UniProt Q92918)
Assay: HPK1 kinase assay (ADP-Glo)
Assay type: biochemical
Details: 25 μM ATP, MBP substrate
How it was run: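 Activity was read as ADP formed, detected by ADP-Glo luminescence after the reaction of 5 ng recombinant human HPK1 with MBP and ATP (stocks 0.5 μg/μl and 25 μM) for 40 min at 30 °C. Buffer was Tris pH 7.5 with MgCl2, BSA and DTT, with compound in 0.5% DMSO. IC50 came from inhibition curves.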

recombinant human HPK1, sequence (Q92918 whole entry): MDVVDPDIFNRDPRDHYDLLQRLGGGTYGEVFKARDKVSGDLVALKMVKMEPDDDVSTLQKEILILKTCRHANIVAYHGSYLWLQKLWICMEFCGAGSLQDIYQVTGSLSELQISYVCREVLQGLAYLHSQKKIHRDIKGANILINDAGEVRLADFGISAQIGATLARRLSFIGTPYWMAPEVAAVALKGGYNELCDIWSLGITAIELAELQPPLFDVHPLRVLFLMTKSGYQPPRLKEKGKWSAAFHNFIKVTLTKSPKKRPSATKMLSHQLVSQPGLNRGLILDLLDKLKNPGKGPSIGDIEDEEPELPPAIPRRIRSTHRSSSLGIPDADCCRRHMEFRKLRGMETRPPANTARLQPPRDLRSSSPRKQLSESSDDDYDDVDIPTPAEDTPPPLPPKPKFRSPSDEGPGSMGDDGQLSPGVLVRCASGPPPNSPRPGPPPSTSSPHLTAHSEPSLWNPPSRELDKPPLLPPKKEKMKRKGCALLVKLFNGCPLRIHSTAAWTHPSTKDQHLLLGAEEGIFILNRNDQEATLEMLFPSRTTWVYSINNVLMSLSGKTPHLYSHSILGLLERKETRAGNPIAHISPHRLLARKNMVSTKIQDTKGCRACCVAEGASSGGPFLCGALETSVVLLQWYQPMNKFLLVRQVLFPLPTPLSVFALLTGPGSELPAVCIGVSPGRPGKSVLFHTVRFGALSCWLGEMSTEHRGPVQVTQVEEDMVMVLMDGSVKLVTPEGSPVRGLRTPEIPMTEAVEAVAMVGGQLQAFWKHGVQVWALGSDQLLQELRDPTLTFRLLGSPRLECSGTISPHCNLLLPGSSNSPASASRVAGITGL

IC50	Compound
> 1000 nM	O=C(O)c1c(F)c(Cl)c(-c2ccc3nc(NC(=O)[C@@H]4C[C@@H]4F)cn3c2)c2cn[nH]c12 [Example 314, 5-chloro-6-fluoro-4-(2-((1S,2S)-2-fluorocyclopropane-1-carboxamido)imidazo[1,2-a]pyridin-6-yl)-1H-indazole-7-carboxylic acid]
< 100 nM	COC(=O)c1c(F)c(Cl)c(-c2ccc3nc(NC(=O)[C@@H]4C[C@@H]4F)cn3c2)c2cn[nH]c12 [Example 315, methyl 5-chloro-6-fluoro-4-(2-((1S,2S)-2-fluorocyclopropane-1-carboxamido)imidazo[1,2-a]pyridin-6-yl)-1H-indazole-7-carboxylate]
< 100 nM	CNNc1c(F)c(Cl)c(-c2ccc3nc(NC(=O)[C@@H]4C[C@@H]4F)cn3c2)c2cn[nH]c12 [Example 317, (1S,2S)-N-(6-(5-chloro-6-fluoro-7-(2-methylhydrazineyl)-1H-indazol-4-yl)imidazo[1,2-a]pyridin-2-yl)-2-fluorocyclopropane-1-carboxamide]
< 100 nM	CCOc1c(F)c(CC)c(-c2ccc3nc(NC(=O)[C@@H]4C[C@@H]4F)cn3c2)c2cn[nH]c12 [Example 318, (1S,2S)-N-(6-(7-ethoxy-5-ethyl-6-fluoro-1H-indazol-4-yl)imidazo[1,2-a]pyridin-2-yl)-2-fluorocyclopropane-1-carboxamide]
< 100 nM	CC(=O)c1c(F)c(Cl)c(-c2ccc3nc(NC(=O)[C@@H]4C[C@@H]4F)cn3c2)c2cn[nH]c12 [Example 319, (1S,2S)-N-(6-(7-acetyl-5-chloro-6-fluoro-1H-indazol-4-yl)imidazo[1,2-a]pyridin-2-yl)-2-fluorocyclopropane-1-carboxamide]
< 100 nM	CNC(=O)c1c(F)c(Cl)c(-c2ccc3nc(NC(=O)[C@@H]4C[C@@H]4F)cn3c2)c2cn[nH]c12 [Example 321, 5-chloro-6-fluoro-4-(2-((1S,2S)-2-fluorocyclopropane-1-carboxamido)imidazo[1,2-a]pyridin-6-yl)-N-methyl-1H-indazole-7-carboxamide]
101 to 500 nM	CC(=O)c1c(F)c(C)c(-c2ccc3nc(NC(=O)[C@@H]4C[C@@H]4F)cn3c2)c2cn[nH]c12 [Example 322, (1S,2S)-N-(6-(7-acetyl-6-fluoro-5-methyl-1H-indazol-4-yl)imidazo[1,2-a]pyridin-2-yl)-2-fluorocyclopropane-1-carboxamide]
< 100 nM	O=C(Nc1cn2cc(-c3c(Cl)c(F)c(F)c4[nH]ncc34)ccc2n1)[C@@H]1C[C@@H]1F [Example 323, (1S,2S)-N-(6-(5-chloro-6,7-difluoro-1H-indazol-4-yl)imidazo[1,2-a]pyridin-2-yl)-2-fluorocyclopropane-1-carboxamide]
> 1000 nM	NC(=O)c1c(F)c(Cl)c(-c2ccc3nc(NC(=O)[C@@H]4C[C@@H]4F)cn3c2)c2cn[nH]c12 [Example 325, 5-chloro-6-fluoro-4-(2-((1S,2S)-2-fluorocyclopropane-1-carboxamido)imidazo[1,2-a]pyridin-6-yl)-1H-indazole-7-carboxamide]
< 100 nM	CCOc1c(F)cc2[nH]ncc2c1-c1ccc2nc(NC(=O)[C@@H]3C[C@@H]3F)cn2c1 [Example 328, (1S,2S)-N-(6-(5-ethoxy-6-fluoro-1H-indazol-4-yl)imidazo[1,2-a]pyridin-2-yl)-2-fluorocyclopropane-1-carboxamide]
< 100 nM	O=C(Nc1cn2cc(-c3c(Cl)c(F)c(C(F)F)c4[nH]ncc34)ccc2n1)[C@@H]1C[C@@H]1F [Example 331, (1S,2S)-N-(6-(5-chloro-7-(difluoromethyl)-6-fluoro-1H-indazol-4-yl)imidazo[1,2-a]pyridin-2-yl)-2-fluorocyclopropane-1-carboxamide]
< 100 nM	CN(C)c1c(F)cc(-c2ccc3nc(NC(=O)[C@@H]4C[C@@H]4F)cn3c2)c2cn[nH]c12 [Example 335, (1S,2S)-N-(6-(7-(dimethylamino)-6-fluoro-1H-indazol-4-yl)imidazo[1,2-a]pyridin-2-yl)-2-fluorocyclopropane-1-carboxamide]
< 100 nM	O=C(Nc1cn2cc(-c3c(Cl)c(F)c(N4CCCC4=O)c4[nH]ncc34)ccc2n1)[C@@H]1C[C@@H]1F [Example 336, (1S,2S)-N-(6-(5-chloro-6-fluoro-7-(2-oxopyrrolidin-1-yl)-1H-indazol-4-yl)imidazo[1,2-a]pyridin-2-yl)-2-fluorocyclopropane-1-carboxamide]
< 100 nM	CN(c1ccccn1)c1c(F)c(Cl)c(-c2ccc3nc(NC(=O)[C@@H]4C[C@@H]4F)cn3c2)c2cn[nH]c12 [Example 337, (1S,2S)-N-(6-(5-chloro-6-fluoro-7-(methyl(pyridin-2-yl)amino)-1H-indazol-4-yl)imidazo[1,2-a]pyridin-2-yl)-2-fluorocyclopropane-1-carboxamide]
101 to 500 nM	CNC(=O)c1c(F)c(C)c(-c2ccc3nc(NC(=O)[C@@H]4C[C@@H]4F)cn3c2)c2cn[nH]c12 [Example 338, 6-fluoro-4-(2-((1S,2S)-2-fluorocyclopropane-1-carboxamido)imidazo[1,2-a]pyridin-6-yl)-N,5-dimethyl-1H-indazole-7-carboxamide]
< 100 nM	CCc1c(F)c(C(F)(F)F)c2[nH]ncc2c1-c1ccc2nc(NC(=O)[C@@H]3C[C@@H]3F)cn2c1 [Example 339, (1S,2S)-N-(6-(5-ethyl-6-fluoro-7-(trifluoromethyl)-1H-indazol-4-yl)imidazo[1,2-a]pyridin-2-yl)-2-fluorocyclopropane-1-carboxamide]
101 to 500 nM	CSc1ccc(-c2ccc3nc(NC(=O)[C@@H]4C[C@@H]4F)cn3c2)c2cn[nH]c12 [Example 340, (1S,2S)-2-fluoro-N-(6-(7-(methylthio)-1H-indazol-4-yl)imidazo[1,2-a]pyridin-2-yl)cyclopropane-1-carboxamide]
< 100 nM	CCN(C)C(=O)c1c(F)c(Cl)c(-c2ccc3nc(NC(=O)[C@@H]4C[C@@H]4F)cn3c2)c2cn[nH]c12 [Example 341, 5-chloro-N-ethyl-6-fluoro-4-(2-((1S,2S)-2-fluorocyclopropane-1-carboxamido)imidazo[1,2-a]pyridin-6-yl)-N-methyl-1H-indazole-7-carboxamide]
< 100 nM	CSc1c(F)cc(-c2ccc3nc(NC(=O)[C@@H]4C[C@@H]4F)cn3c2)c2cn[nH]c12 [Example 342, (1S,2S)-2-fluoro-N-(6-(6-fluoro-7-(methylthio)-1H-indazol-4-yl)imidazo[1,2-a]pyridin-2-yl)cyclopropane-1-carboxamide]
< 100 nM	Cc1c(F)c(C(F)F)c2[nH]ncc2c1-c1ccc2nc(NC(=O)[C@@H]3C[C@@H]3F)cn2c1 [Example 343, (1S,2S)-N-(6-(7-(difluoromethyl)-6-fluoro-5-methyl-1H-indazol-4-yl)imidazo[1,2-a]pyridin-2-yl)-2-fluorocyclopropane-1-carboxamide]
101 to 500 nM	O=C(Nc1cn2cc(-c3cc(F)c(OC(F)(F)F)c4[nH]ncc34)ccc2n1)[C@@H]1C[C@@H]1F [Example 344, (1S,2S)-2-fluoro-N-(6-(6-fluoro-7-(trifluoromethoxy)-1H-indazol-4-yl)imidazo[1,2-a]pyridin-2-yl)cyclopropane-1-carboxamide]
< 100 nM	Cc1c(F)c(OC(F)(F)F)c2[nH]ncc2c1-c1ccc2nc(NC(=O)[C@@H]3C[C@@H]3F)cn2c1 [Example 345, (1S,2S)-2-fluoro-N-(6-(6-fluoro-5-methyl-7-(trifluoromethoxy)-1H-indazol-4-yl)imidazo[1,2-a]pyridin-2-yl)cyclopropane-1-carboxamide]
